Measured values from ChEMBL document CHEMBL5034028, “Design, synthesis and biological evaluation of tyrosinase-targeting PROTACs” (Eur J Med Chem, 2021).
Values after ≈ are worked out from the molar mass of the structure shown. Active and inactive are the calls of the source. No cut-off for these calls is given here.

Experiments:
[1] = Aqueous solubility of compound; type: physicochemical; conditions: aqueous (not further specified)
[2] = biological target: T1, Protein cereblon/Tyrosinase (Homo sapiens) (UniProt P14679+Q96SW2); assay: Protac activity at CRBN E3 ubiquitin ligase/tyrosinase in human A375 cells assessed as induction of tyrosinase degradation at 50 uM measured after 24 hrs by immunoblotting analysis relative to control; type: cell-based; conditions: A-375
[3] = biological target: T1, Protein cereblon/Tyrosinase (Homo sapiens); assay: Protac activity at CRBN E3 ubiquitin ligase/tyrosinase in human A-375 cells assessed as induction of tyrosinase degradation at 50 uM measured after 24 hrs by immunoblotting analysis; type: cell-based
[4] = biological target: T1, Protein cereblon/Tyrosinase (Homo sapiens); assay: Protac activity at CRBN E3 ubiquitin ligase/tyrosinase in human A-375 cells assessed as induction of tyrosinase degradation at 100 uM measured after 24 hrs by immunoblotting analysis; type: cell-based
Danio rerio [5] = species: Danio rerio; assay: Inhibition of melanin production in zebra fish assessed reduction in melanin level in abdomen at 25 to 100 uM measured 48 hrs post fertilization; type: functional, organism-based; conditions: dose 25-100 µM
Danio rerio [6] = species: Danio rerio; assay: Inhibition of melanin production in zebra fish assessed reduction in melanin level in back at 25 to 100 uM measured 48 hrs post fertilization; type: functional, organism-based; conditions: dose 25-100 µM
Mushroom tyrosinase = Mushroom tyrosinase (Agaricus bisporus, UniProt O42713+Q00024+C7FF04+C7FF05); assay: Binding affinity to mushroom tyrosinase assessed as dissociation constant
Danio rerio [7] = species: Danio rerio; assay: Inhibition of melanin production in zebra fish assessed reduction in melanin level in eyes at 25 to 100 uM measured 48 hrs post fertilization; type: functional, organism-based; conditions: dose 25-100 µM
A-375 [8] = assay: Inhibition of melanin production in human A-375 cells assessed reduction in melanin level at 100 uM measured after 24 hrs by UV-visible absorption spectrophotometric method; type: functional, cell-based
Danio rerio [9] = species: Danio rerio; assay: Inhibition of melanin production in zebra fish assessed reduction in melanin level in tail at 25 to 100 uM measured 48 hrs post fertilization; type: functional, organism-based; conditions: dose 25-100 µM
[10] = biological target: D(1A) dopamine receptor (Homo sapiens) (UniProt P21728); assay: Induction of degradation in dopamine receptor D1 in human A-375 cells at 100 uM measured after 24 hrs by immunoblotting analysis; type: cell-based
[11] = biological target: Beta-1 adrenergic receptor (Homo sapiens) (UniProt P08588); assay: Induction of degradation in adrenergic receptor beta1 in human A-375 cells at 100 uM measured after 24 hrs by immunoblotting analysis; type: cell-based
[12] = biological target: Adrenergic receptor alpha-1 (Homo sapiens) (UniProt P35348+P25100+P35368); assay: Induction of degradation in adrenergic receptor alpha1 in human A-375 cells at 100 uM measured after 24 hrs by immunoblotting analysis; type: cell-based
[13] = Cytotoxicity against human A-375 cells assessed as reduction in cell viability measured after 72 hrs by CCK8 assay; type: cell-based
[14] = biological target: T1, Protein cereblon/Tyrosinase (Homo sapiens); assay: Protac activity at CRBN E3 ubiquitin ligase/tyrosinase in human A-375 cells assessed as induction of tyrosinase degradation by measuring maximum degradation at 100 uM measured after 24 hrs by immunoblotting analysis relative to control; type: cell-based
Danio rerio [15] = species: Danio rerio; assay: Inhibition of melanin production in zebra fish assessed reduction in melanin level in eyes at 25 to 100 uM measured 48 hrs post fertilization relative to 100 uM kojic acid; type: functional; conditions: dose 25-100 µM
Danio rerio [16] = species: Danio rerio; assay: Inhibition of melanin production in zebra fish assessed depigmentation effect at 25 to 100 uM measured 96 hrs post fertilization relative to control; type: functional; set-up: scale not given: the % may be the effect or the level left; conditions: dose 25-100 µM
A-375 [17] = assay: Cytotoxicity against human A-375 cells assessed as reduction in cell viability at up to 400 uM measured after 72 hrs by CCK8 assay; type: cell-based; conditions: a-375, 72 h
A-375 [18] = assay: Inhibition of melanin production in human A-375 cells assessed reduction in melanin level measured after 24 hrs by UV-visible absorption spectrophotometric method; type: functional, cell-based
[19] = Toxicity in zebrafish embryo assessed as effect on respiration at 25 to 100 uM measured 48 hrs post fertilization; set-up: species or system Danio rerio; conditions: in vivo, dose 25-100 µM
A-375 [20] = assay: Inhibition of melanin production in human A-375 cells assessed depigmentation ability at 0 to 100 uM measured after 24 hrs by UV-visible absorption spectrophotometric method relative to 100 uM L-Dopa; type: functional; conditions: dose 0-100 µM
Tyrosinase = biological target: T2, Tyrosinase (Homo sapiens, UniProt P14679); assay: Inhibition of human tyrosinase
T2 sequence (P14679 whole entry): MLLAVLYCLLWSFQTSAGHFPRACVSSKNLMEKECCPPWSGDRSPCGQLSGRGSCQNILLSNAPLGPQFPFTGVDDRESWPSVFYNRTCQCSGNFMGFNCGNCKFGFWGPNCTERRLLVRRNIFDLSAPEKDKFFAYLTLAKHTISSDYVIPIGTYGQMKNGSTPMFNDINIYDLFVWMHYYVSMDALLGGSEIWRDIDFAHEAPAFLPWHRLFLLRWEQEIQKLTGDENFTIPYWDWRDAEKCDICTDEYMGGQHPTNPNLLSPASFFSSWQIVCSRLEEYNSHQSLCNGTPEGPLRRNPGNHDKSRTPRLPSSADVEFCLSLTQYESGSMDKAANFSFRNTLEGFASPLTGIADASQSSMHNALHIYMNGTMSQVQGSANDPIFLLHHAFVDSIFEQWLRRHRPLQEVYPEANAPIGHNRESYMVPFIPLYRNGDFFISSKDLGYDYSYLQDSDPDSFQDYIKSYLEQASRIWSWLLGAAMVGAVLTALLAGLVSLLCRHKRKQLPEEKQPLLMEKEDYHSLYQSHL

[21] = Cytotoxicity against HEK293 cells assessed as reduction in cell viability measured after 72 hrs by CCK8 assay; type: cell-based; conditions: human
[22] = biological target: T1, Protein cereblon/Tyrosinase (Homo sapiens); assay: Protac activity at CRBN E3 ubiquitin ligase/tyrosinase in human A-375 cells assessed as induction of tyrosinase degradation measured after 24 hrs by immunoblotting analysis; type: cell-based
[23] = Toxicity in zebrafish embryo assessed as effect on morphology at 25 to 100 uM measured 48 hrs post fertilization; type: tissue-based, Danio rerio; conditions: in vivo, dose 25-100 µM
[24] = biological target: T1, Protein cereblon/Tyrosinase (Homo sapiens); assay: Protac activity at CRBN E3 ubiquitin ligase/tyrosinase in human A-375 cells assessed as induction of tyrosinase degradation at 100 uM measured up to 48 hrs by immunoblotting analysis; type: cell-based; conditions: time hrs <=48, TDE = time-dependent effect
[25] = n-Octanol/water partition coefficient, logD of the compound; type: physicochemical
HEK293 = assay: Cytotoxicity against HEK293 cells assessed as reduction in cell viability at up to 400 uM measured after 72 hrs by CCK8 assay; type: cell-based; conditions: human, hek293, 72 h
[26] = biological target: T3, Tyrosinase (Homo sapiens) (UniProt P14679); assay: Induction of human tyrosinase degradation in human A-375 cells assessed as downregulation of tyrosinase at 100 uM pretreated with proteasome inhibitor, MG132 for 30 mins followed by compound addition and measured after 24 hrs by immunoblotting analysis; type: cell-based
T3 sequence (whole entry): T2 sequence (P14679 whole entry)

A-375 [27] = assay: Inhibition of melanin production in human A-375 cells assessed depigmentation ability at 0 to 100 uM measured after 24 hrs by UV-visible absorption spectrophotometric method relative to 100 uM kojic acid; type: functional; conditions: dose 0-100 µM
Danio rerio [28] = species: Danio rerio; assay: Inhibition of melanin production in zebra fish assessed reduction in melanin level in eyes at 25 to 100 uM measured 48 hrs post fertilization relative to 100 uM L-Dopa; type: functional; conditions: dose 25-100 µM
[29] = biological target: T3, Tyrosinase (Homo sapiens); assay: Induction of human tyrosinase degradation in human A-375 cells assessed as downregulation of tyrosinase at 100 uM pretreated with ubiquitin activating enzyme inhibitor […] for 30 mins followed by compound addition and measured after 24 hrs by immunoblotting analysis; type: cell-based
Danio rerio [30] = species: Danio rerio; assay: Inhibition of melanin production in zebra fish assessed depigmentation effect at 100 uM measured 96 hrs post fertilization; type: functional, organism-based

T1 sequence (Q96SW2 whole entry, looked up, one chain of several): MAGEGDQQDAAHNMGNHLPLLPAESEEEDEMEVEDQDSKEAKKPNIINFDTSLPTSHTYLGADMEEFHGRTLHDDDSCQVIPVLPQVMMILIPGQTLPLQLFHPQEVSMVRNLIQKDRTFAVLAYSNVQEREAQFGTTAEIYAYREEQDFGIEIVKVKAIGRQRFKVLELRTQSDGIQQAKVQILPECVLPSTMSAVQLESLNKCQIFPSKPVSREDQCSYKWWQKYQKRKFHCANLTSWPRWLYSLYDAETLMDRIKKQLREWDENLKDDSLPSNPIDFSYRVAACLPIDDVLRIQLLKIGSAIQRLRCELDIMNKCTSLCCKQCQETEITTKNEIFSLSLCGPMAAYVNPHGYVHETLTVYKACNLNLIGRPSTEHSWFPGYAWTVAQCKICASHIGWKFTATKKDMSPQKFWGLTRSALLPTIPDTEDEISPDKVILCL
D(1A) dopamine receptor (Homo sapiens), sequence (P21728 whole entry): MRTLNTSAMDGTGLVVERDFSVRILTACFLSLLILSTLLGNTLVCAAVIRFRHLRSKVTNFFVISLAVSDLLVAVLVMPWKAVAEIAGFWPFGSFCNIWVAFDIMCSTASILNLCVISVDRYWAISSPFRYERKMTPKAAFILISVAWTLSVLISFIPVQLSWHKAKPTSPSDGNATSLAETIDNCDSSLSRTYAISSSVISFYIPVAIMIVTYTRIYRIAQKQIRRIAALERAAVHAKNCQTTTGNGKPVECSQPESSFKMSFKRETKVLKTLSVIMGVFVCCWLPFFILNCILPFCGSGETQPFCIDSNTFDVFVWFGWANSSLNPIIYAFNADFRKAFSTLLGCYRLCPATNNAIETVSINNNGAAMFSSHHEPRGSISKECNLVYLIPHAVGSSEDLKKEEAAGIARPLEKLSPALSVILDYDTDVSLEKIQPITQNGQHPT
Beta-1 adrenergic receptor (Homo sapiens), sequence (P08588 whole entry, looked up): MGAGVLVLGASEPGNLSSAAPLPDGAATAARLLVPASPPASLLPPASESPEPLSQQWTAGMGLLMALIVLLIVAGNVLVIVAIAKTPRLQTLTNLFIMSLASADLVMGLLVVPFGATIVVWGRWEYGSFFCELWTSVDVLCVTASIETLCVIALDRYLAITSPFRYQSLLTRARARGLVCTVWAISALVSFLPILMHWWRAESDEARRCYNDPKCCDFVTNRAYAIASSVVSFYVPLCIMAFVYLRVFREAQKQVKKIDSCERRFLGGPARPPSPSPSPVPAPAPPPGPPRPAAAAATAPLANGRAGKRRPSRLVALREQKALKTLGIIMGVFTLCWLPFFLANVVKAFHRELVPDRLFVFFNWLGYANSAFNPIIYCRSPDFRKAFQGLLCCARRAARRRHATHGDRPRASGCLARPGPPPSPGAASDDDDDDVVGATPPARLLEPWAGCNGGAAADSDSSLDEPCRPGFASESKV

## O=c1oc2c(O)c(O)cc3c(=O)oc4c(O)c(O)cc1c4c23 [ELLAGIC ACID]
[1]
  solubility: 9.7 µg/mL (≈ 32.1 µM)

## N[C@@H](Cc1ccc(O)c(O)c1)C(=O)NCCCCNc1cccc2c1C(=O)N(C1CCC(=O)NC1=O)C2=O (some centres not stated)
[2]
  Activity: 19%

## N[C@@H](Cc1ccc(O)c(O)c1)C(=O)NCCCCCCCCCCNc1cccc2c1C(=O)N(C1CCC(=O)NC1=O)C2=O (some centres not stated)
[2]
  Activity: 37%

## N[C@@H](Cc1ccc(O)c(O)c1)C(=O)NCCCCCCCCNc1cccc2c1C(=O)N(C1CCC(=O)NC1=O)C2=O (some centres not stated)
[3]
  Activity: Active
[2]
  Activity: 38%

## CN1C(=O)CCC(N2C(=O)c3cccc(NCCCCCNC(=O)[C@@H](N)Cc4ccc(O)c(O)c4)c3C2=O)C1=O (some centres not stated)
[4]
  Activity: inactive

## N[C@@H](Cc1ccc(O)c(O)c1)C(=O)O [LEVODOPA]
Danio rerio [5]
  inhibition: inactive
Danio rerio [6]
  inhibition: inactive
[3]
  Activity: inactive
Mushroom tyrosinase
  Kd: 19 µM
Danio rerio [7]
  inhibition: inactive
A-375 [8]
  inhibition: Active
Danio rerio [9]
  inhibition: inactive

## O=C1CCC(N2C(=O)c3cccc(NCCCCCCCC(=O)OCc4cc(=O)c(O)co4)c3C2=O)C(=O)N1 (configuration not stated)
[3]
  Activity: inactive

## O=C1CCC(N2C(=O)c3cccc(NCCCCCCCCCCC(=O)OCc4cc(=O)c(O)co4)c3C2=O)C(=O)N1 (configuration not stated)
[3]
  Activity: inactive

## N[C@@H](Cc1ccc(O)c(O)c1)C(=O)NCCCNc1cccc2c1C(=O)N(C1CCC(=O)NC1=O)C2=O (some centres not stated)
[2]
  Activity: 25%

## N[C@@H](Cc1ccc(O)c(O)c1)C(=O)NCCCCCCNc1cccc2c1C(=O)N(C1CCC(=O)NC1=O)C2=O (some centres not stated)
[10]
  Activity: inactive
[11]
  Activity: inactive
[12]
  Activity: inactive
[2]
  Activity: > 25%

## N[C@@H](Cc1ccc(O)c(O)c1)C(=O)NCCCCCCCNc1cccc2c1C(=O)N(C1CCC(=O)NC1=O)C2=O (some centres not stated)
[2]
  Activity: 37%

## N[C@@H](Cc1ccc(O)c(O)c1)C(=O)NCCCCCNc1cccc2c1C(=O)N(C1CCC(=O)NC1=O)C2=O (some centres not stated)
Danio rerio [5]
  inhibition: Active
[13]
  CC50 at 72 h: > 700 µM
[14]
  %max: 61%
Danio rerio [15]
  fold change (FC): 3.3
Danio rerio [6]
  inhibition: Active
Danio rerio [16]
  Activity: 81%
A-375 [17]
  Activity: Non-Toxic
A-375 [18]
  inhibition: Dose-Dependent Effect
[19]
  Activity: Non-Toxic
[3]
  Activity: Active
A-375 [20]
  fold change (FC): 1.7
Tyrosinase
  IC50: 113 µM
[21]
  CC50 at 72 h: > 700 µM
[22]
  Activity: Dose-Dependent Effect
Danio rerio [7]
  inhibition: Active
[10]
  Activity: inactive
[11]
  Activity: inactive
[12]
  Activity: inactive
[23]
  Activity: Non-Toxic
[24]
  Activity: Tde
[1]
  solubility: 11400 µg/mL (≈ 21200 µM)
Danio rerio [9]
  inhibition: Active
[25]
  logP: -0.65
HEK293
  Activity: Non-Toxic
[26]
  Activity: inactive
A-375 [27]
  fold change (FC): 1.4
Danio rerio [28]
  fold change (FC): 5.1
[29]
  Activity: inactive
[2]
  Activity: 46%

## O=c1cc(CO)occ1O [KOJIC ACID]
Danio rerio [5]
  inhibition: inactive
Danio rerio [6]
  inhibition: inactive
Danio rerio [7]
  inhibition: inactive
[1]
  solubility: 55 µg/mL (≈ 387 µM)
A-375 [8]
  inhibition: Active
Danio rerio [9]
  inhibition: inactive
Danio rerio [30]
  Activity: Active

## N[C@@H](Cc1ccccc1)C(=O)NCCCCCNc1cccc2c1C(=O)N(C1CCC(=O)NC1=O)C2=O (some centres not stated)
[4]
  Activity: inactive

## N[C@@H](Cc1ccc(O)c(O)c1)C(=O)NCCNc1cccc2c1C(=O)N(C1CCC(=O)NC1=O)C2=O (some centres not stated)
[2]
  Activity: 14%

## N[C@@H](Cc1cccc(O)c1)C(=O)NCCCCCNc1cccc2c1C(=O)N(C1CCC(=O)NC1=O)C2=O (some centres not stated)
[4]
  Activity: inactive

## N[C@@H](Cc1ccc(O)cc1)C(=O)NCCCCCNc1cccc2c1C(=O)N(C1CCC(=O)NC1=O)C2=O (some centres not stated)
[4]
  Activity: inactive

## O=C1CCC(N2C(=O)c3ccccc3C2=O)C(=O)N1 (configuration not stated)
[3]
  Activity: inactive

## N[C@@H](Cc1ccc(O)c(O)c1)C(=O)NCCOCCNc1cccc2c1C(=O)N(C1CCC(=O)NC1=O)C2=O (some centres not stated)
[2]
  Activity: 7%

## O=C1CCC(N2C(=O)c3cccc(NCCCCCC(=O)OCc4cc(=O)c(O)co4)c3C2=O)C(=O)N1 (configuration not stated)
[3]
  Activity: inactive

## O=C1CCC(N2C(=O)c3cccc(NCCCCCCCCC(=O)OCc4cc(=O)c(O)co4)c3C2=O)C(=O)N1 (configuration not stated)
[3]
  Activity: inactive

## N[C@@H](Cc1ccc(O)c(O)c1)C(=O)NCCOCCOCCNc1cccc2c1C(=O)N(C1CCC(=O)NC1=O)C2=O (some centres not stated)
[2]
  Activity: 7%

## O=C(CCc1ccc(O)c(O)c1)NCCCCCNc1cccc2c1C(=O)N(C1CCC(=O)NC1=O)C2=O (configuration not stated)
[4]
  Activity: inactive
